Measured values published in patent US20080312197A1, “PHARMACEUTICAL PRODUCTS CONTAINING HORMONES AND A 25-HYDROXY VITAMIN D COMPOUND” (priority 2007, published 2008).

Key:
[1] = test system: Vitamin D 24 hydroxylase (24-OH); assay: Western blot of 24 hydroxylase expression in OVCAR 3 cells; format: cell-based, human; conditions: 18 hours, 100 nM Vitamin D, 25 μM progesterone, 25 μM Genistein
Source text: Protein was then extracted from the cells and 24-OH expression was the measured via Western Blot, and the degree of expression (band density) measured via a densitometer.

24 hydroxylase (24-OH) = target: T1, 24 hydroxylase (24-OH) (Homo sapiens, UniProt Q07973); conditions: shown by others; cited from earlier work
T1 sequence (Q07973 36-514): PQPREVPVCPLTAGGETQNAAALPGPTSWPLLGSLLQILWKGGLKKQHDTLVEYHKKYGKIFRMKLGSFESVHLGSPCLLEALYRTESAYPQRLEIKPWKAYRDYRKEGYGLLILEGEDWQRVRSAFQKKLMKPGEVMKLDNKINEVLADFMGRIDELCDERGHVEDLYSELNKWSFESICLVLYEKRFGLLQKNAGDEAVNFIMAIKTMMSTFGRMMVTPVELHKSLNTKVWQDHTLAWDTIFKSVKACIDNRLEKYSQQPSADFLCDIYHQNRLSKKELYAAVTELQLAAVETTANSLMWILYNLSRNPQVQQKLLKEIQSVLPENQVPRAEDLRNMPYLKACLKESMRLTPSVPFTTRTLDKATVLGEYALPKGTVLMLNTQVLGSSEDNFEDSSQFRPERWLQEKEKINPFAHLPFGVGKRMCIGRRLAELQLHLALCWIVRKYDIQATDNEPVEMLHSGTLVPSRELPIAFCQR

OVCAR 3 cells = assay: MTS cell viability assay, OVCAR 3 cells; format: cell-based, human
Procedure: (§1) Progesterone and Vitamin D (1,25(OH)2 D3) were tested to determine their effect on cell lines derived from the human ovarian surface epithelium. […] This is shown in FIGS. 1-3 in both ovarian cancer cell lines (OVCAR 5 and OVCAR 3) as well as an immortalized cell cultures derived from the normal human ovarian epithelium (HIO-118V). There is a marked impact on cell viability when the two agents are combined and administered at a dosage that has a marginal impact for each agent given alone.

OVCAR 5 cells = assay: MTS cell viability assay, OVCAR 5 cells; format: cell-based, human
Procedure: as §1

HIO-118V cells [2] = assay: MTS cell viability assay, immortalized human ovarian epithelial cells (HIO-118V); format: cell-based
Procedure: as §1

[3] = cited from earlier work
[4] = 0.5 micrograms per day or 5 micrograms per week; cited from earlier work
HIO-118V cells [5] = assay: Apoptosis by TUNEL method, HIO-118V cells; format: cell-based, human; conditions: 45 uM progesterone, 1 uM Vitamin D
Procedure: In experiments to further understand the effect of progestin and vitamin D on cell viability, experiments were conducted to determine how progestin, vitamin D, and the combination act to induce apoptosis. In the experiment cells were incubated for 28 and 48 hours in the hormonal treatments as indicated and assessed for TUNEL reactivity. In these experiments, Apoptosis (TUNEL) data shown in conditions in which inhibitory effects via MTS were shown. In the example shown in FIG. 4, OVCAR 3 cells undergo a 7-fold increase in apoptosis at 48 hrs when treated with a combination of progesterone and vitamin D. HIO-118V cells show a 1.7-fold increase in apoptosis with 45 uM progesterone alone and a 1.9-fold increase with the combination of 1 uM Vitamin D and 45 uM progesterone.

Molecule: 1,25-dihydroxyvitamin D3 [Vitamin D (1,25(OH)2 D3)]
- 24-OH expression (Western blot, band density) [1]: markedly induced

Molecule: O=c1c(-c2ccc(O)cc2)coc2cc(O)cc(O)c12 [Genistein, genistein]
- inhibition of 24-OH (24 hydroxylase (24-OH)): inhibit 24-OH

Molecule: C=C1/C(=C\C=C2/CCC[C@]3(C)[C@@H]([C@H](C)CCCC(C)(C)O)CC[C@@H]23)C[C@@H](O)C[C@@H]1O [Vitamin D (1,25(OH)2 D3), 1,25-dihydroxyvitamin D3]
- cell viability (MTS assay) (OVCAR 3 cells): inhibit cell viability in a dose response fashion
- cell viability (MTS assay) (OVCAR 5 cells): inhibit cell viability in a dose response fashion
- cell viability (MTS assay) (HIO-118V cells [2]): inhibit cell viability in a dose response fashion
- half life after oral administration [3]: 5 to 8 h
- serum half-life ([3]; serum): 6 to 8 h
- individuals developing hypercalcemia [4]: 1-3%

Molecule: CC(=O)[C@H]1CC[C@H]2[C@@H]3CCC4=CC(=O)CC[C@]4(C)[C@H]3CC[C@]12C [Progesterone, progesterone]
- cell viability (MTS assay) (OVCAR 3 cells): inhibit cell viability in a dose response fashion
- cell viability (MTS assay) (OVCAR 5 cells): inhibit cell viability in a dose response fashion
- cell viability (MTS assay) (HIO-118V cells [2]): inhibit cell viability in a dose response fashion
- increase in apoptosis (TUNEL) (HIO-118V cells [5]): 1.7 fold
- 24-OH expression (Western blot, band density) [1]: causes both degradation and decreases production of 24 hydroxylase

Molecule: C=C1CC[C@H](O)C/C1=C/C=C1\CCC[C@]2(C)[C@@H]([C@H](C)CCCC(C)(C)O)CC[C@@H]12 [25(OH) D3, 25-hydroxyvitamin D3]
- half life after oral administration [3]: approximately 2 weeks
